Measurements: PubChem BioAssay (NCI)
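Exposure lasted 48 hours, with cells grown in 96-well plates and compounds tested at five concentrations. TGI marks complete inhibition of growth.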

Experiments:
Assay in all cases: NCI-60 cell line screen, 48 h
SK-OV-3 ovarian = tested on: SK-OV-3 ovarian
SN12C renal = tested on: SN12C renal
786-0 renal = tested on: 786-0 renal
SF-295 CNS = tested on: SF-295 CNS
HOP-92 NSCLC = tested on: HOP-92 NSCLC
UACC-62 melanoma = tested on: UACC-62 melanoma
RXF 393 renal = tested on: RXF 393 renal
M14 melanoma = tested on: M14 melanoma
MALME-3M melanoma = tested on: MALME-3M melanoma
IGROV1 ovarian = tested on: IGROV1 ovarian
SF-539 CNS = tested on: SF-539 CNS
OVCAR-8 ovarian = tested on: OVCAR-8 ovarian
RPMI-8226 leukemia = tested on: RPMI-8226 leukemia
LOX IMVI melanoma = tested on: LOX IMVI melanoma
HCT-116 colon = tested on: HCT-116 colon
MOLT-4 leukemia = tested on: MOLT-4 leukemia
HT29 colon = tested on: HT29 colon
MDA-MB-231 breast = tested on: MDA-MB-231 breast
SK-MEL-5 melanoma = tested on: SK-MEL-5 melanoma
T-47D breast = tested on: T-47D breast

| Structure (SMILES) | TGI (SK-OV-3 ovarian) [µM] | TGI (SN12C renal) [µM] | TGI (786-0 renal) [µM] | TGI (SF-295 CNS) [µM] | TGI (HOP-92 NSCLC) [µM] | TGI (UACC-62 melanoma) [µM] | TGI (RXF 393 renal) [µM] | TGI (M14 melanoma) [µM] | TGI (MALME-3M melanoma) [µM] | TGI (IGROV1 ovarian) [µM] | TGI (SF-539 CNS) [µM] | TGI (OVCAR-8 ovarian) [µM] | TGI (RPMI-8226 leukemia) [µM] | TGI (LOX IMVI melanoma) [µM] | TGI (HCT-116 colon) [µM] | TGI (MOLT-4 leukemia) [µM] | TGI (HT29 colon) [µM] | TGI (MDA-MB-231 breast) [µM] | TGI (SK-MEL-5 melanoma) [µM] | TGI (T-47D breast) [µM] |
| --- | --- | --- | --- | --- | --- | --- | --- | --- | --- | --- | --- | --- | --- | --- | --- | --- | --- | --- | --- | --- |
| CC(=O)c1cccc(NCn2nnc3ccccc32)c1 | > 100 | > 100 | > 100 | > 100 | > 100 | > 100 | > 100 | > 100 | > 100 | > 100 | > 100 | > 100 | > 100 | > 100 | > 100 | > 100 | > 100 | – | – | – |
| O=C(NCCNCCO)N/N=C/c1ccc([N+](=O)[O-])cc1 | > 100 | > 100 | > 100 | > 100 | – | > 100 | – | > 100 | > 100 | > 100 | > 100 | > 100 | – | – | > 100 | > 100 | > 100 | > 100 | > 100 | > 100 |
| [O-]c1on[n+]2c1c(Nc1ccc(Cl)cc1)nc1ccccc12 | > 100 | > 100 | > 100 | > 100 | > 100 | > 100 | > 100 | > 100 | – | > 100 | > 100 | > 100 | > 100 | > 100 | > 100 | > 100 | > 100 | – | > 100 | – |
| CC(Oc1ccc(OCC2CCCCC2)cc1)C(=O)N(CCO)CCO (configuration not stated) | > 100 | > 100 | > 100 | > 100 | – | > 100 | > 100 | > 100 | > 100 | > 100 | 39.8 | > 100 | – | > 100 | > 100 | > 100 | > 100 | – | > 100 | – |
| CC(CCc1ccc2c(c1)c(=N)c1ccc(N)cc1n2O)CC(C)(C)C (configuration not stated) | – | 3.22 | 2.82 | 7.29 | – | 2.79 | 4.43 | 3.18 | 3.37 | 2.95 | – | – | 4.64 | 3.07 | 4.03 | – | – | – | 3.01 | – |
| NC1CNC(=O)c2cscc21 (configuration not stated) | – | > 100 | > 100 | > 100 | > 100 | > 100 | > 100 | > 100 | > 100 | > 100 | – | – | > 100 | > 100 | > 100 | > 100 | > 100 | – | > 100 | – |
| CC(C)N1CSC(=S)N(Cc2ccccc2)C1 | > 10 | > 10 | – | > 10 | 8.39 | > 10 | 6.27 | – | – | > 10 | 3.35 | > 10 | > 10 | > 10 | > 10 | 7.43 | 6.04 | – | > 10 | > 10 |
| CCOC(=O)C(O)(NC(=O)Nc1ccc(F)cc1)C(F)(F)F (configuration not stated) | > 100 | > 100 | > 100 | – | – | – | > 100 | > 100 | – | > 100 | > 100 | > 100 | > 100 | > 100 | > 100 | > 100 | > 100 | – | > 100 | > 100 |
| CC(=O)O[C@]12CCC[C@H]1C1(O)C(O)CCC[C@H]12 (some centres not stated) | > 100 | > 100 | > 100 | > 100 | – | > 100 | > 100 | > 100 | > 100 | – | – | > 100 | > 100 | > 100 | > 100 | > 100 | > 100 | – | > 100 | – |
| O=[N+]([O-])c1nccn1CC1OC(n2ccnc2[N+](=O)[O-])C(O)C(O)C1O (configuration not stated) | – | – | > 100 | – | > 100 | > 100 | > 100 | > 100 | > 100 | – | – | > 100 | > 100 | – | > 100 | > 100 | > 100 | – | > 100 | > 100 |
| C1=NCCOCCN=Cc2ccccc2OCc2cccc(n2)COc2ccccc21 | > 25 | 15.2 | > 25 | 12 | > 25 | 9.09 | > 25 | > 25 | 22.5 | > 25 | 9.13 | 16.9 | 14 | – | > 25 | 18.4 | 10.9 | 19.1 | – | – |
| CC(C)CNC(=O)Cn1c2c(c3ccccc31)CCCC2 | > 100 | > 100 | 61.2 | > 100 | > 100 | > 100 | – | > 100 | > 100 | > 100 | > 100 | > 100 | > 100 | > 100 | > 100 | > 100 | > 100 | – | > 100 | – |
| COc1ccc(NCC(=O)Nn2c(C)nc3ccc(S(=O)(=O)Nc4ccc(OC)cc4)cc3c2=O)cc1 | > 100 | > 100 | > 100 | > 100 | > 100 | > 100 | – | > 100 | > 100 | > 100 | > 100 | > 100 | > 100 | > 100 | > 100 | > 100 | > 100 | > 100 | – | – |
| Cc1cccc(Nc2cn(CCOc3ccccc3)c(=O)n(CCOc3ccccc3)c2=O)c1 | – | > 100 | > 100 | > 100 | > 100 | > 100 | > 100 | > 100 | – | > 100 | – | – | > 100 | > 100 | > 100 | > 100 | – | – | > 100 | – |
| C=CC12CN(C)C3C4COC(CC41)C1(C(=O)Nc4ccccc41)C32 (configuration not stated) | > 82.4 | > 200 | – | > 200 | > 200 | > 200 | > 200 | – | > 200 | > 200 | > 200 | > 200 | > 200 | > 200 | > 200 | > 200 | > 200 | – | > 200 | – |
